The assay deals with Cdk2/Cyclin A (Homo sapiens, UniProt P24941). As to the kind of experiment: Inhibition assay of Cdk2/Cyclin A activity (SPA, IC50). The assay is classed as biochemical. As to conditions: tested against Cdk2/Cyclin A. The protocol: The inhibiting activity of putative Cdk/Cyclin inhibitors and the potency of selected compounds was determined through a method of assay based on the use of the SPA technology (Amersham Pharmacia Biotech).
The assay consists of the transfer of radioactivity labelled phosphate moiety by the kinase to a biotinylated substrate. The resulting 33P-labelled biotinylated product is allowed to bind to streptavidin-coated SPA beads (biotin capacity 130 pmol/mg), and light emitted was measured in a scintillation counter.
Inhibition Assay of Cdk2/Cyclin A Activity
4 μM in house biotinylated histone H1 (Sigma #H-5505) substrate, 10 μM ATP (0.1 microCi P^33γ-ATP), 4.2 ng Cdk2/Cyclin A complex, inhibitor in a final volume of 30 μl buffer (TRIS HCl 10 mM pH 7.5, MgCl2 10 mM, DTT 7.5 mM+0.2 mg/ml BSA) were added to each well of a 96 U bottom. After 30 min at r.t. incubation, reaction was stopped by 100 μl PBS+32 mM EDTA+0.1% Triton X-100+500 μM ATP, containing 1 mg SPA beads. Then a volume of 110 μl is transferred to Optiplate.
After 20 min. incubation for substrate capture, 100 μl 5M CsCl were added to allow statification of beads to the top of the plate and let stand 4 hours before radioactivity counting in the Top-Count instrument.
inhibitors were tested at different concentrations ranging from 0.0015 to 10 μM. Experimental data were analyzed by the computer program GraphPad Prizm using the four parameter logistic equation: y=bottom+(top−bottom)/(1+10^((log IC50−x)*slope)) where x is the logarithm of the inhibitor concentration, y is the response; y starts at bottom and goes to top with a sigmoid shape.
Broadly, the IC50 is the concentration needed to halve the response being measured. `CC(=O)N1Cc2c(NC(=O)c3cccc(Br)c3)n[nH]c2C1(C)C` [Reference Compound, N-[5-acetyl-6,6-dimethyl-4,6-dihydropyrrolo[3,4-c]pyrazol-3-yl]-(3-bromo)benzamide, reference compound] registered an IC50 of 1700 nM. The value for `CC(C)(C)C(=O)N1Cc2c(NC(=O)c3ccc(F)cc3)n[nH]c2C12CC2` [Compound 2, N-[5-(2,2-dimethylpropanoyl)-1,4,5,6-tetrahydropyrrolo[3,4-c]pyrazol-6-spirocyclopropan-3-yl]-4-fluorobenzamide] was 25 nM. `CC(C)(C)C(=O)N1Cc2c(NC(=O)c3ccc(F)cc3)n[nH]c2C1(C)C` [Compound 1, N-[5-(2,2-dimethylpropanoyl)-6,6-dimethyl-1,4,5,6-tetrahydropyrrolo[3,4-c]pyrazol-3-yl]-4-fluorobenzamide] displayed an IC50 of 30 nM.

The record behind these values is US8557845B2, “Substituted pyrrolo-pyrazole derivatives as kinase inhibitors” (Nerviano Medical Sciences S.R.L., priority 2002, dated 2013).
